In PMC10952535, “The differential binding and biological efficacy of auxin herbicides” (Pest Management Science, 2022):

Experiments:
[1] = target: T1, AtTIR1 (Arabidopsis thaliana, UniProt Q570C0); assay: SPR relative binding (co-receptor complex formation with Aux/IAA7 degron), AtTIR1; conditions: 50 μM compound
T1 construct: His10 (N, cleaved yes); eGFP (N, cleaved yes); FLAG (N, cleaved yes); made in house; host or cells: baculovirus; Trichoplusia ni Hi5 cells (virus generated in Sf9)
Description: (§1) Auxin binding assays using surface plasmon resonance (SPR) were performed on a Biacore 2000 as described previously.[3], [18], [23] Protein was stored on ice and protein concentrations were assayed by A280 nm measurement (nanodrop, Thermo Scientific). Briefly, AtAux/IAA7 degron peptide was immobilized on streptavidin‐coated SPR chips, and binding was measured in the presence of IAA or auxin analogue by recruitment of the TIR1/AFB protein from solution as the co‐receptor complex formed on the chip. Kinetic analyses were performed by single cycle kinetics on a Biacore T200 (Cytiva Life Sciences), titrating compounds against a fixed concentration of TIR1 before injection. The degron peptide density on the chips was controlled so that R max < 300 Response UNits (RU).

[2] = target: T2, AtAFB2 (Arabidopsis thaliana, UniProt Q9LW29); assay: SPR relative binding (co-receptor complex formation with Aux/IAA7 degron), AtAFB2; conditions: 50 μM compound
T2 construct: His10 (N, cleaved yes); eGFP (N, cleaved yes); FLAG (N, cleaved yes); made in house; host or cells: baculovirus; Trichoplusia ni Hi5 cells (virus generated in Sf9)
Description: as §1

[3] = target: T3, AtAFB5 (Arabidopsis thaliana, UniProt Q9LTX2); assay: SPR relative binding (co-receptor complex formation with Aux/IAA7 degron), AtAFB5; conditions: 50 μM compound
T3 construct: His10 (N, cleaved yes); eGFP (N, cleaved yes); FLAG (N, cleaved yes); made in house; host or cells: baculovirus; Trichoplusia ni Hi5 cells (virus generated in Sf9)
Description: as §1

[4] = target: T3, AtAFB5; assay: biochemical; assay type: binding
Description: as §1

[5] = target: T1, AtTIR1; assay: biochemical; assay type: binding
Description: as §1

[6] = system: Arabidopsis thaliana wild type (WT) Col‐0; assay: Foliar efficacy bioassay, wild type; assay type: in vivo; conditions: foliar application; for GR50 (DW % of NT): dry weight at 14 DAT
Description: (§2) Bioassays were carried out with the model species Arabidopsis thaliana. The wild type (WT) Col‐0 line was compared to an afb5‐1 mutant line in a Col‐0 background containing a missense mutation of R609K.[11] A. thaliana seeds were sown on Metro‐mix 360 potting mix (Sungro Horticulture) supplemented with vermiculite and stratified for 3 days at 4 °C in the dark. Flats were moved to a growth chamber (as above) and a plastic lid was placed on the flat. On germination, the lid was removed. After 2 weeks in the growth chamber, seedlings were transplanted into 3‐in. pots with Metro‐mix 360 potting mix and moved to a greenhouse. The greenhouse was maintained at a day/night temperature of 23/22 °C and supplemented with light to complete a 16 h photoperiod. Plants were allowed to recover from transplanting for 1 week prior to applications. A. thaliana seedlings were sprayed with test compounds at five rates with four replications. Tests included nontreated and solvent check controls. Individual compound doses varied and were based on plate test data or anecdotal potency. Compounds were formulated as technical material and were initially dissolved in 1 part 97:3 (v/v) acetone: dimethylsufoxide (DMSO) followed by 5 parts 1.5% (v/v) Agridex crop oil concentrate in distilled water to give a final concentration of 1.25% (v/v) Agridex. Formulated compounds were sprayed at a volume of 187 L ha^−1 at a spray height of 43 cm above the plants with an overhead Mandel track sprayer set with 8002 E Tee jet nozzle. Plants were treated at rosette stage just prior to or at initiation of bolting. After spray application, plants were allowed to dry then moved back to the greenhouse. Plants were grown in the greenhouse (same conditions as above) for 2 weeks until harvest. Visual injury/growth reduction observations were made at 7 and 14 days after treatment (DAT) and scored where 0% = no growth reduction and 100% = complete growth reduction or plant death. At 14 DAT the plants were harvested and dried to collect dry weight (DW) biomass.
(§3) The data collected in the foliar application of compounds generated a measure of sensitivity or dose response. The data was analyzed by regression in JMP 10.0 and fit to a nonlinear exponential three parameter fit model:
(§4) where a is the asymptote, b is the scale and c is the rate of growth. The model was used to determine the herbicidal dose that caused 50% reduction in growth (GR50). GR50 values were compared between mutant and WT to give an indication of fold resistance over WT (Table 3). A log‐logistic model[24] was also used to fit the data and gave similar GR50 values with greater standard errors without changing the pattern of responsiveness.

[7] = system: Arabidopsis thaliana afb5‐1 mutant line; assay type: in vivo; conditions: for GR50 (DW % of NT): dry weight at 14 DAT; for Resistance ratio (afb5‐1 vs WT), DW: ratio of dry weight GR50 values, foliar application
Description: as §2, §3, §4

[8] = system: Arabidopsis thaliana Col‐0 seedlings; assay: Root growth inhibition bioassay, wild type; assay type: in vivo; conditions: 8 days, up to 10 μM
Description: A. thaliana seed was surface sterilized in 10 mL of 50% bleach and two drops of Tween‐20 for 12 min and rinsed six times with sterile water. Sterile growth media consisted of half‐strength Murashige and Skoog salts supplemented with 0.4% agar and 0.8% sucrose. In a laminar flow hood, 8 mL of liquid media was transferred to sterile test‐tubes placed in a heat block to maintain media in a liquid state. Compounds were previously diluted in 50/50 DMSO/water to a known molar concentration. A 50‐μL aliquot of diluted compound was added to each tube to give a specified final concentration, normally 10, 1, 0.1, 0.01 or 0.001 μM. A single tube was treated with solvent only as a control. Test compounds were mixed into the media by pipetting up and down three times, then 6 mL of media with test compound was added to one well in a six‐well plate, working from low‐to‐high concentration, and allowed to solidify in the laminar flow hood. Approximately 15 sterilized seeds were placed on the solidified surface and the remaining 2 mL of liquid media was added to cover and disperse seeds. Plates were sealed with paraffin and moved to a Conviron growth chamber set to 60% humidity, 25 °C and light intensity 100 μE m^2 s^−1 with a 16 h photoperiod. After 8 days primary root measurements of five random plants were taken by removing plants from media and measuring with a ruler. […]

[9] = system: Arabidopsis thaliana afb5‐1 seedlings; assay: Root growth inhibition bioassay, afb5‐1 mutant; assay type: in vivo; conditions: afb5‐1 vs WT dose-response, 8 days
Description: A. thaliana seed was surface sterilized in 10 mL of 50% bleach and two drops of Tween‐20 for 12 min and rinsed six times with sterile water. Sterile growth media consisted of half‐strength Murashige and Skoog salts supplemented with 0.4% agar and 0.8% sucrose. In a laminar flow hood, 8 mL of liquid media was transferred to sterile test‐tubes placed in a heat block to maintain media in a liquid state. Compounds were previously diluted in 50/50 DMSO/water to a known molar concentration. A 50‐μL aliquot of diluted compound was added to each tube to give a specified final concentration, normally 10, 1, 0.1, 0.01 or 0.001 μM. A single tube was treated with solvent only as a control. Test compounds were mixed into the media by pipetting up and down three times, then 6 mL of media with test compound was added to one well in a six‐well plate, working from low‐to‐high concentration, and allowed to solidify in the laminar flow hood. Approximately 15 sterilized seeds were placed on the solidified surface and the remaining 2 mL of liquid media was added to cover and disperse seeds. Plates were sealed with paraffin and moved to a Conviron growth chamber set to 60% humidity, 25 °C and light intensity 100 μE m^2 s^−1 with a 16 h photoperiod. After 8 days primary root measurements of five random plants were taken by removing plants from media and measuring with a ruler. Treatments were compared against the solvent control to determine percentage root growth inhibition. Each experiment was run twice and averages were combined for analysis.

T3 sequence (Q9LTX2 whole entry, other chains not shown): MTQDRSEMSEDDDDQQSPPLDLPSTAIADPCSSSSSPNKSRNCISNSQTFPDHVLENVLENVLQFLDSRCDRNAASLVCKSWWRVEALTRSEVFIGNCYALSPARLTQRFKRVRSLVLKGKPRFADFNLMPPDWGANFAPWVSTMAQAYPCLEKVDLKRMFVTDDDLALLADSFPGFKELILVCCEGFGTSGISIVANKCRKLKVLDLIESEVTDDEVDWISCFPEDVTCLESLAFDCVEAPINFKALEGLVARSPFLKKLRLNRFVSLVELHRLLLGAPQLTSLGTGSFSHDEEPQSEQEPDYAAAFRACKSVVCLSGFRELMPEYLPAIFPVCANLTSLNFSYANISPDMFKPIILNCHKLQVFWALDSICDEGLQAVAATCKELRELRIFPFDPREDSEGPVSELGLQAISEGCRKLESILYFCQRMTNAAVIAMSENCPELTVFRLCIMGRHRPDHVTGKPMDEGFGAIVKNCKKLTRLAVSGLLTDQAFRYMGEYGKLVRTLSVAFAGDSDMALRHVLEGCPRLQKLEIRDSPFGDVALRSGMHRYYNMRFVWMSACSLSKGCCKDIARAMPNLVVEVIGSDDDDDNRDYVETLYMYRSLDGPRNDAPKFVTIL
T3 sequence (Q39255 whole entry partner, other chains not shown): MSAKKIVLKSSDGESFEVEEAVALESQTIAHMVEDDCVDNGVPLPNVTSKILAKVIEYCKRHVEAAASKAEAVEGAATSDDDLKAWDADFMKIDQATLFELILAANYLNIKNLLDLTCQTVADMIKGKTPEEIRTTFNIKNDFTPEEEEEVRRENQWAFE
T1 sequence (Q570C0 whole entry, other chains not shown): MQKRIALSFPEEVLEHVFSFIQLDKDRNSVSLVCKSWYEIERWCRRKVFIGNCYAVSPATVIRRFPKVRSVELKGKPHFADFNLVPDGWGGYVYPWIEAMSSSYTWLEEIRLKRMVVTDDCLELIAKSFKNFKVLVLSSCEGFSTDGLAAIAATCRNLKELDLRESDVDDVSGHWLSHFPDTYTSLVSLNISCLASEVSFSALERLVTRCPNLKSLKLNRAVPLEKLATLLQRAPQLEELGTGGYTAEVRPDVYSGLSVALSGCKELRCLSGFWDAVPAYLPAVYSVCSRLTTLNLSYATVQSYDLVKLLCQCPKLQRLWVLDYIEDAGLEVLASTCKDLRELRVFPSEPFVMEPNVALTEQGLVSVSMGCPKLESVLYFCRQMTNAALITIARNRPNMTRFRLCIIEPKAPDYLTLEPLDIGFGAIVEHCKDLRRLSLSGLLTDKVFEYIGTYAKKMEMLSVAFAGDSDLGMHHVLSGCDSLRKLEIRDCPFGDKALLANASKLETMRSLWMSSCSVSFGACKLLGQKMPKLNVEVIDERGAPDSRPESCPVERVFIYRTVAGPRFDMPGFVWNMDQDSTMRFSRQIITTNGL
T1 sequence (Q39255 whole entry partner, other chains not shown): as the sequence (Q39255 whole entry partner, other chains not shown) above
T2 sequence (Q9LW29 whole entry, other chains not shown): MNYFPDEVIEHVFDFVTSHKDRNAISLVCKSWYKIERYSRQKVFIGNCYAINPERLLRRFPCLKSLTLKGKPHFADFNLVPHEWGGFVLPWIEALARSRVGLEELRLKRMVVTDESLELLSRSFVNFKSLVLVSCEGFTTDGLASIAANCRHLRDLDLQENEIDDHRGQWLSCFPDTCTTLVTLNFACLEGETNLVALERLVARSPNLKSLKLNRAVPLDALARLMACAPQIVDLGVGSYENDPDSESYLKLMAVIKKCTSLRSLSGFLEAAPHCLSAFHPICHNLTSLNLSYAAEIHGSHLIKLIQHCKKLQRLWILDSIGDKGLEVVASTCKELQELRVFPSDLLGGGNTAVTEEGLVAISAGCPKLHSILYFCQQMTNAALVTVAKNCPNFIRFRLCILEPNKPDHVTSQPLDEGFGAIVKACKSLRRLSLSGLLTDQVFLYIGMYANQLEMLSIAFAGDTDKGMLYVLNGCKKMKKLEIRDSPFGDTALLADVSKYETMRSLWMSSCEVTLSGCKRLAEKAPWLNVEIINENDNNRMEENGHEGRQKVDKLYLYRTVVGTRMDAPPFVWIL
T2 sequence (Q39255 whole entry partner, other chains not shown): as the sequence (Q39255 whole entry partner, other chains not shown) above

| SMILES | Relative binding (in words) ([1]; compared to IAA) | Relative binding (in words) ([2]; compared to IAA) | Relative binding (in words) ([3]; compared to IAA) | Kd [4] [µM] | Kd [5] [µM] | GR50 (DW % of NT) [6] [g ai ha^−1] | GR50 (visual injury) ([6]; visual injury) [g ai ha^−1] | GR50 (DW % of NT) ([7]; afb5‐1, foliar application) [g ai ha^−1] | Resistance ratio (afb5‐1 vs WT), DW [7] | Primary root growth inhibition (in words) [8] | Resistance of afb5‐1 in root growth inhibition (in words) [9] | % of IAA binding ([1]; normalized to IAA = 100%) [%] | % of IAA binding ([2]; normalized to IAA = 100%) [%] | % of IAA binding ([3]; normalized to IAA = 100%) [%] | Foliar phytotoxicity (in words) [6] | Foliar phytotoxicity / resistance (in words) ([7]; afb5‐1, foliar application) |
| --- | --- | --- | --- | --- | --- | --- | --- | --- | --- | --- | --- | --- | --- | --- | --- | --- |
| Nc1c(Cl)c(Cl)nc(C(=O)O)c1Cl [Picloram] | relatively low binding | relatively low binding | relatively low binding | 107 | 319 | 13.7 | 202 | 996 | 72.7 | low level of phytotoxicity | considerable resistance | – | – | – | – | – |
| O=C(O)c1c(Cl)ccc2cc(Cl)cnc12 [Quinclorac] | – | – | – | – | – | 1015 | – | 1002 | 1 | very low root growth inhibition | No resistance | < 5 | < 5 | < 5 | did not provide much phytotoxicity | did not provide much phytotoxicity |
